# Where two headings read alike, the source gives them in different places.
# Key:
# [1] = Color change inhibition (Gardner Color Scale); type: physicochemical; details: for Color (Gardner Scale): 54° C. for two weeks
# Procedure: Specifically, the color changed from clear or a 1 on the Gardner Scale to a yellow color of 4-5 on the Gardener Scale. See ASTM D1544-04(2010), Standard Test Method for Color of Transparent Liquids (Gardner Color Scale), ASTM International, West Conshohocken, Pa., 2010, www.astm.org for explanation of the Gardner scale. To overcome this problem several methods were tested including lowering the pH to 4.0, packaging under nitrogen gas blanket, adding specific salts, chelating agents, antioxidants or preservatives.
# [2] = ACC precipitation and crystallization tests; type: physicochemical
# [3] = ACC precipitation and crystallization tests; type: physicochemical; remark: listed apart in the source
# Procedure: To overcome this problem, salts were added individually to 10% w/w ACC aqueous solutions. These solutions were stored at room temperature and analyzed for precipitate formation.
# Gala apple trees = test: Apple thinning; type: in vivo; details: foliar spray at 18 to 20 mm mean fruit diameter
# Procedure: The formula from Example 8, above, was diluted to prepare 200 and 400 ppm ACC solutions. These solutions were applied as a foliar spray to Gala apple trees grown at three separate locations when the mean fruit diameter was from 18 to 20 millimeters. […] Thinning activity is expressed as the number of fruit set per 100 flower clusters after the completion of natural fruit drop.
# cotton cotyledons = test: Cotton cotyledon bioefficacy assay (headspace ethylene evolution); type: in vivo
# Procedure: The solutions were amended with 0.05% (v/v) of a non-ionic surfactant and spray applied to the adaxial surface of 10-day old cotton cotyledons using a track sprayer. In addition to ACC-containing solutions, appropriate controls were tested. Two days (48 hours) after spray application, the cotyledons from each plant were removed, weighed and incubated in sealed glass vials for 4 to 7 hours. Headspace ethylene evolution by the cotyledons was measured by gas chromatography using standard methods. The assay from Example 5, above, was repeated with a formulation containing 0.2% w/w EDTA.
# [4] = salt added to 10% w/w ACC aqueous solution, 5° C. overnight
# [5] = salt added to 10% w/w ACC aqueous solution, stored at room temperature
# [6] = additive 0.2 % w/w in 10% ACC, 10% calcium chloride, Kathon CG/ICP formulation
compound,measurement,setting,value
"Cl [2N hydrochloric acid, hydrochloric acid]",Color (Gardner Scale),[1]; additive 0.6-0.9 % w/w,3-4
CC(O)C(=O)[O-].CC(O)C(=O)[O-].O.O.O.O.O.[Ca+2] (stereo not drawn) [(CH3CH(OH)COO)2Ca•5H2O],Precipitation (5° C.),[2]; [4],YES
same,Precipitation (room temperature),[3]; [5],YES
"NC1(C(=O)O)CC1 [ACC, 1-amino-1-cyclopropanecarboxylic acid]",Thinning Activity,"Gala apple trees; Geneva, NY, 200 ppm ACC",47 fruit set per 100 flower clusters
same,Thinning Activity,"Gala apple trees; Geneva, NY, 400 ppm ACC",37 fruit set per 100 flower clusters
same,Thinning Activity,"Gala apple trees; Monitor, WA, 200 ppm ACC",32 fruit set per 100 flower clusters
same,Thinning Activity,"Gala apple trees; Monitor, WA, 400 ppm ACC",10 fruit set per 100 flower clusters
same,Thinning Activity,"Gala apple trees; Parkdale, OR, 200 ppm ACC",267 fruit set per 100 flower clusters
same,Thinning Activity,"Gala apple trees; Parkdale, OR, 400 ppm ACC",194 fruit set per 100 flower clusters
same,Ethylene,"cotton cotyledons; ACC 500 ppm, molar ratio 1:0, 48 hours after spray",39.80 nL/gFW/hr
same,Ethylene,"cotton cotyledons; Example 6, ACC 500 ppm",27.6 nL/g FW/hr
same,Precipitation,"[3]; 10% w/w ACC free acid in water, no salt, room temperature and/or 5° C.",precipitate
O=[N+]([O-])[O-].[Ag+] [AgNO3],Precipitation (5° C.),[2]; [4],YES
same,Precipitation (room temperature),[3]; [5],YES
O=S(=O)([O-])[O-].O=S(=O)([O-])[O-].O=S(=O)([O-])[O-].[Al+3].[Al+3] [Al2(SO4)3],Precipitation (5° C.),[2]; [4],YES
same,Precipitation (room temperature),[3]; [5],YES
O=C1O[C@H]([C@@H](O)CO)C(O)=C1O [Ascorbic acid],Color (Gardner Scale),[1]; [6],>18
[Ba+2].[Cl-].[Cl-] [BaCl2],Precipitation (5° C.),[2]; [4],YES
O=[N+]([O-])[O-].O=[N+]([O-])[O-].[Ca+2] [Ca(NO3)2],Precipitation (5° C.),[2]; [4],YES
"[Ca+2].[Cl-].[Cl-] [CaCl2, calcium chloride]",Ethylene,"cotton cotyledons; CaCl2 550 ppm, molar ratio ACC:CaCl2 0:1, 48 hours after spray",1.49 nL/gFW/hr
O=S(=O)([O-])[O-].[Ca+2] [CaSO4],Precipitation (5° C.),[2]; [4],YES
same,Precipitation (room temperature),[3]; [5],YES
O=C(O)CC(O)(CC(=O)O)C(=O)O [Citric acid],Color (Gardner Scale),[1]; [6],4-5
"O=C(O)CN(CCN(CC(=O)O)CC(=O)O)CC(=O)O [EDTA, ethylenediaminetetraacetic acid]",Gardner scale score,"[1]; EDTA at 0.1% or 0.2% w/w, 2 weeks at 54° C.",≤ 2
same,Gardner scale score,"[1]; EDTA at 0.1% or 0.2% w/w, 2 weeks plus 6 additional weeks at 54° C.",1-2
same,Color maintenance versus pH,"[1]; EDTA at 0.1% or 0.2% w/w, pH 4.0",best results
same,Time clear color maintained,"[1]; EDTA at 0.1% or 0.2% w/w, pH 5.2, 54° C.",at least 4 weeks
same,Color (Gardner Scale),[1]; additive 0.1 % w/w,1-2
same,Color (Gardner Scale),[1]; additive 0.5 % w/w,1-2
O=C(O)/C=C/C(=O)O [Fumaric acid],Color (Gardner Scale),[1]; [6],4-5
O=C([O-])CC(O)(CC(=O)[O-])C(=O)[O-].[Fe+3] [Iron(III) citrate hydrate],Precipitation (5° C.),[2]; [4],YES
same,Precipitation (room temperature),[3]; [5],YES
[Cl-].[K+] [KCl],Precipitation (5° C.),[2]; [4],YES
same,Precipitation (room temperature),[3]; [5],YES
O=[N+]([O-])[O-].[K+] [KNO3],Precipitation (5° C.),[2]; [4],YES
same,Precipitation (room temperature),[3]; [5],YES
O=[N+]([O-])[O-].O=[N+]([O-])[O-].[Mg+2] [Mg(NO3)2],Precipitation (5° C.),[2]; [4],YES
[Cl-].[Cl-].[Mg+2] [MgCl2],Precipitation (5° C.),[2]; [4],YES
Cl.N [NH4Cl],Precipitation (5° C.),[2]; [4],YES
same,Precipitation (room temperature),[3]; [5],YES
N.O=[N+]([O-])O [NH4NO3],Precipitation (5° C.),[2],YES
same,Precipitation (room temperature),[3],YES
CC(=O)[O-].[Na+] [Sodium acetate],Color (Gardner Scale),[1]; [6],4-5
O=C([O-])CC(O)(CC(=O)[O-])C(=O)[O-].[Na+].[Na+].[Na+] [Sodium citrate],Color (Gardner Scale),[1]; [6],4-5
NC(N)=O [Urea],Color (Gardner Scale),[1]; [6],5-6

# Source: patent US20180279622A1, “1-AMINO-1-CYCLOPROPANECARBOXYLIC ACID FORMULATIONS” (Valent BioSciences LLC, priority 2017, published 2018)
